The source of these data is US6624199B1, “Aminobenzophenones” (Leo Pharmaceuticals Products Ltd. A/S, priority 1999, dated 2003).

For data set [1] the following is noted: cited from earlier work.
Data set [2] relates to Oxazolone-induced contact dermatitis in the mouse ear. Nature of the data set: Model 1: oxazolone-induced contact dermatitis in the mouse ear. As to conditions: topical in acetone 30 min post-challenge, 0.5 mg/ear (all-trans retinoic acid 0.01 mg/ear). The data set is classed as in vivo. The procedure:
(§1) For in vivo assays, the test compounds were dissolved in acetone. Adapalene was tested as a gel formulation (Differin gel 0.1%, 20-30 mg/treatment). The screening doses were 0.5 mg/ear in model 1 and 2. Exception was all-trans retinoic acid (0.01 mg/ear).
Model 1. Oxazolone-induced Contact Dermatitis in the Mouse Ear
AIM Compounds with anti-inflammatory effects in this model may be useful in treating contact eczema in man.
METHODS Groups of 5-6 mice sensitised to oxazolone 4 days before challenge with oxazolone to the right ear. The resulting oedema (right ear thickness minus left ear thickness) is measured 24, 48 and 72 hours post-challenge (PC), and neutrophil (PMN) influx is determined by the myeloperoxidase (MPO) method 72 hours post-challenge in ear biopsies. The screening dose is 0.5 mg/ear or less applied to the right ear 30 min post-challenge (+30 min). Other dosing regimes are stated.
RESULTS Results are recorded as % change from control animals using the formula: 100(T/C-1) where T=mean Oedema/MPO treated group and C=mean Oedema/MPO control group. Negative figures represent inhibition and positive stimulation. The level of significance is set at p<0.05 using the Mann-Whitney's U-test. Significant stimulation is stated.

The subject of data set [3] is utriculi (pseudocomedones) of rhino mouse skin. Description: Rhino mouse model (comedolytic and hyperplastic potency, skin irritation). As to conditions: for % increase in epidermal thickness / % reduction in number of utriculi / Skin irritation YES/NO: once daily for three weeks; for comedolytic effect (reduction in number of utriculi), in words / epidermal hyperplasia (increase in epidermal thickness and follicular epithelia), in words: 1.5% concentration in acetone, three weeks; for clinical visible skin irritancy, in words: three weeks treatment period.
Protocol: (§2) The rhino mouse is an in vivo model for the study of hyperplastic and comedolytic potency of various drugs used in the treatment of acne. The rhino mouse has follicles on the skin. The orifices are distended with horny material and these structures resembles human microcomedones and are referred to as utriculi or pseudocomedones.
(§3) In the present study the effect of a number of compounds were evaluated in the rhino mouse model. […] Additionally a number of marketed products used today for treatment of acne were selected and included for comparison.
(§4) The animals were treated once daily for three weeks including weekends. […] Histological evaluation of the skin was performed at the end of the treatment period.

The test system is the same in data set [4]. The note with it: in vivo.
Protocol: as §2, §3, §4
Data set [5] has as its system TPA-induced chronic skin inflammation in the mouse ear. Nature of the data set: Model 2: TPA-induced chronic skin inflammation in the mouse ear. It counts as in vivo. The note with it: topical in acetone twice daily day 8-10, once day 11, 0.5 mg/ear (all-trans retinoic acid 0.01 mg/ear). As for the experimental part: as §1
Model 2. Tpa-induced Chronic Skin Inflammation in the Mouse Ear
AIM Compounds with anti-inflammatory effects in this model may be useful in treating chronic skin disorders in man.
METHODS In groups of 5-6 mice, ear inflammation is induced by multiple topical applications of TPA on alternate days during a 10-day period. The resulting inflammation is treated topically with compounds in acetone solution twice daily on day 8, 9 and 10 and once on day 11. Ear thickness (ET) is determined 5-6 hours after the last drug administration, the mice are sacrificed and myeloperoxidase (MPO) activity (=PMN-infiltration) is determined in ear biopsies, cf. De Young, L. M. et al, Agents Actions, 26, 335-341 (1989); Carlson, R. P. et al, Agents Actions, 17, 197-204 (1985); Alford, J. G. et al, Agents Action, 37, (1992); Stanley, P. L. et at, Skin Pharmacol, 4, 262-271 (1991).
RESULTS Results are recorded as % change from control group using the formula: 100(T/C-1) where T=mean ET/MPO treated group and C=mean ET/MPO control group. Negative figures represent inhibition and positive stimulation. The level of significance is set at p<0.05 using the Mann-Whitney's U-test. Significant stimulation is stated.

[6] abbreviates: Skinoren cream 20%, versus untreated controls.
[7] abbreviates: Basiron gel 5%, versus untreated controls.
The mark [8] stands for this setting: Basiron gel 10%, versus untreated controls.
The mark [9] stands for this setting: 1.5% in acetone, versus vehicle control.
Where [10] appears, read: Differin gel 0.1%, versus untreated controls.
Where [11] appears, read: 20 μg/ml in ethanol, period 1, versus vehicle control.

Entries after “also recorded” stand apart in the source; their conditions may differ. Read-outs that look alike come from different tables or passages of the source.

Take `CN(C)[C@@H]1C(=O)C(C(N)=O)=C(O)[C@@]2(O)C(=O)C3=C(O)c4c(O)cccc4[C@@](C)(O)[C@H]3C[C@@H]12` [Tetracyclin]: in data set [1] (systemic administration), the Anti-inflam. entry is on record as “Yes”, the Antibacterial entry is reported as “Yes”, the Comedolytic result is recorded as “No” and the Potential irritant result is on record as “No”. Also, in data set [1] (systemic administration), the Teratogenic entry is listed as “Yes”.
In the case of `O=C(O)CCCCCCCC(=O)O` [Azelaic acid], in data set [2], the “SCORE OXA Oedema 48 hours p.c.” value is on record as 0 (% inhibition Oedema 48 h PC < 25). In data set [3] (setting [6]), the “% increase in epidermal thickness” value came to 75% and the “% reduction in number of utriculi” value is 5.7%. Also, in data set [1] (topical administration), the Anti-inflam. entry was “Maybe”, the Antibacterial result is “Yes”, the Comedolytic entry was “Yes” and the Potential irritant result was “Yes”. Also, the Teratogenic result in data set [1] (topical administration) is reported as “No”. The “Skin irritation YES/NO” value in data set [4] is recorded as “NO”. The “SCORE TPA Ear swelling” value in data set [5] is listed as 0 (% inhibition ET <25).
For the molecule `CC1=C(/C=C/C(C)=C/C=C/C(C)=C\C(=O)O)C(C)(C)CCC1` [Isotretinoin], in data set [1] (systemic administration), the Anti-inflam. entry is listed as “Yes”, the Antibacterial result is on record as “Yes”, the Comedolytic result is reported as “Yes” and the Potential irritant result is on record as “Yes”. For the same molecule, the Teratogenic entry in data set [1] (systemic administration) is “Yes”.
As to `O=C(OOC(=O)c1ccccc1)c1ccccc1` [Benzoyl peroxide], the “SCORE OXA Oedema 48 hours p.c.” value in data set [2] is 0 (% inhibition Oedema 48 h PC < 25). Further, in data set [3] (Basiron gel 5%), the “Skin irritation YES/NO” value is recorded as “YES”. Also, in data set [3] (setting [7]), the “% increase in epidermal thickness” value turned out to be 178% and the “% reduction in number of utriculi” value was found to be 46.1%. Moreover, the “Skin irritation YES/NO” value in data set [3] (Basiron gel 10%) is on record as “YES”. Also, in data set [3] (setting [8]), the “% increase in epidermal thickness” value worked out at 190% and the “% reduction in number of utriculi” value came out at 62.1%. In data set [1] (topical administration), the Anti-inflam. result is “Maybe”, the Antibacterial result is reported as “Yes”, the Comedolytic entry is “Some-” and the Potential irritant entry is on record as “Yes”. The “SCORE TPA Ear swelling” value in data set [5] is reported as 0 (% inhibition ET <25).
Consider `CN(C)c1ccc(O)c2c1C[C@H]1C[C@H]3[C@H](N(C)C)C(O)=C(C(N)=O)C(=O)[C@@]3(O)C(O)=C1C2=O` [Minocyclin], for which, in data set [1] (systemic administration), the Anti-inflam. entry is “Yes”, the Antibacterial result is on record as “Yes”, the Comedolytic result is “No” and the Teratogenic entry is “Yes”.
For `CCOC(=O)Nc1ccccc1Nc1ccc(C(=O)c2ccccc2C)c(Cl)c1` [Compound 106, ethyl N-(2-(4-(2-methylbenzoyl)-3-chlorophenylamino)phenyl)carbamate], in data set [2], the “SCORE OXA Oedema 48 hours p.c.” value is 2 (% inhibition Oedema 48 h PC ≧ 35 p < 0.05). Besides, in data set [3], the “comedolytic effect (reduction in number of utriculi), in words” value is “comedolytic effect”; the “epidermal hyperplasia (increase in epidermal thickness and follicular epithelia), in words” value is “epidermal hyperplasia”; the “clinical visible skin irritancy, in words” value is listed as “without concomitant skin irritancy”. The “comedolytic effect (reduction in number of utriculi), in words” value in data set [3] (listed as ethyl N-(2-(4-(2-methylbenzoyl)-3-chlorophenylamino)phenyl)carbamate) is on record as “comedolytic activity”. Besides, in data set [3] (setting [9]), the “% increase in epidermal thickness” value is recorded as 146% and the “% reduction in number of utriculi” value is given as 38.3%. Besides, in data set [5], the “SCORE TPA Ear swelling” value is 2 (% inhibition ET ≧40 p < 0.05).
With `CCC[C@@H]1C[C@@H](C(=O)N[C@@H]([C@H]2O[C@H](SC)[C@H](O)[C@@H](O)[C@H]2O)[C@H](C)Cl)N(C)C1` [Clindamycin], the Teratogenic entry in data set [1] (topical administration) is given as “Probably”.
`CC[C@H]1OC(=O)[C@H](C)[C@@H](O[C@H]2C[C@@](C)(OC)[C@@H](O)[C@H](C)O2)[C@H](C)[C@@H](O[C@@H]2O[C@H](C)C[C@H](N(C)C)[C@H]2O)[C@](C)(O)C[C@@H](C)C(=O)[C@H](C)[C@@H](O)[C@]1(C)O` [Erythromycin]: in data set [2], the “SCORE OXA Oedema 48 hours p.c.” value is recorded as 0 (% inhibition Oedema 48 h PC < 25). Further, the “SCORE TPA Ear swelling” value in data set [5] is given as 1 (% inhibition ET ≧25 p < 0.05).
As for `COc1ccc(-c2ccc3cc(C(=O)O)ccc3c2)cc1C12CC3CC(CC(C3)C1)C2` [Adapalene], the “Skin irritation YES/NO” value in data set [3] (Differin gel 0.1%) is “YES”. In data set [3] (setting [10]), the “% increase in epidermal thickness” value is 202% and the “% reduction in number of utriculi” value was 92.7%.
In the case of `C[C@H]1c2cccc(O)c2C(O)=C2C(=O)[C@]3(O)C(O)=C(C(N)=O)C(=O)[C@@H](N(C)C)[C@@H]3[C@@H](O)[C@@H]21` [Doxycyclin], in data set [1] (systemic administration), the Anti-inflam. result is reported as “Yes”, the Antibacterial result is “Yes”, the Comedolytic result is “No” and the Potential irritant result is reported as “No”. The Teratogenic entry in data set [1] (systemic administration) is “Yes”.
Regarding `Cc1ccccc1C(=O)c1ccc(Nc2ccccc2N)cc1Cl` [Compound 103, 4-(2-aminophenylamino)-2-chloro-2′-methylbenzophenone], in data set [2], the “SCORE OXA Oedema 48 hours p.c.” value was 2 (% inhibition Oedema 48 h PC ≧ 35 p < 0.05). In data set [3], the “comedolytic effect (reduction in number of utriculi), in words” value is reported as “comedolytic effect”; the “epidermal hyperplasia (increase in epidermal thickness and follicular epithelia), in words” value was “epidermal hyperplasia”; the “clinical visible skin irritancy, in words” value is given as “without concomitant skin irritancy”. The “comedolytic effect (reduction in number of utriculi), in words” value in data set [3] (listed as 4-(2-aminophenylamino)-2-chloro-2′-methylbenzophenone) is recorded as “comedolytic activity”. In addition, in data set [3] (setting [9]), the “% increase in epidermal thickness” value is 120% and the “% reduction in number of utriculi” value came to 52.5%. Moreover, the “SCORE TPA Ear swelling” value in data set [5] was 2 (% inhibition ET ≧40 p < 0.05).
With `Cc1ccccc1C(=O)c1ccc(Nc2ccc(F)cc2N)cc1Cl` [Compound 102, 4-(2-Amino-4-fluorophenylamino)-2-chloro-2′-methylbenzophenone], in data set [3], the “comedolytic effect (reduction in number of utriculi), in words” value is “comedolytic effect”; the “epidermal hyperplasia (increase in epidermal thickness and follicular epithelia), in words” value is “epidermal hyperplasia”.
As for `Cc1ccccc1C(=O)c1ccc(Nc2ccc(Br)cc2N)cc1Cl` [Compound 101, 4-(2-Amino-4-bromophenylamino)-2-chloro-2′-methylbenzophenone], the “SCORE OXA Oedema 48 hours p.c.” value in data set [2] is 2 (% inhibition Oedema 48 h PC ≧ 35 p < 0.05). In addition, in data set [3], the “comedolytic effect (reduction in number of utriculi), in words” value is reported as “comedolytic effect; also recorded: most pronounced comedolytic activity”; the “epidermal hyperplasia (increase in epidermal thickness and follicular epithelia), in words” value is “epidermal hyperplasia”; the “clinical visible skin irritancy, in words” value was “without concomitant skin irritancy”. Besides, in data set [3] (setting [9]), the “% increase in epidermal thickness” value is recorded as 203% and the “% reduction in number of utriculi” value was 67.4%. Besides, the “SCORE TPA Ear swelling” value in data set [5] is 3 (% inhibition ET ≧50 p < 0.05).
As for `CC1=C(/C=C/C(C)=C/C=C/C(C)=C/C(=O)O)C(C)(C)CCC1` [All-trans retinoic acid], the “SCORE OXA Oedema 48 hours p.c.” value in data set [2] was 0 (% inhibition Oedema 48 h PC < 25). The “Skin irritation YES/NO” value in data set [3] (20 μg/ml in ethanol, period 1) is listed as “YES”. In data set [3] (setting [11]), the “% increase in epidermal thickness” value worked out at 110% and the “% reduction in number of utriculi” value was 81.5%. Further, in data set [1] (topical administration), the Anti-inflam. entry is recorded as “No”, the Antibacterial entry is reported as “No”, the Comedolytic result is recorded as “Yes” and the Potential irritant result is given as “Yes”. For the same molecule, the Teratogenic result in data set [1] (topical administration) is “Maybe”. Besides, in data set [5], the “SCORE TPA Ear swelling” value is listed as 0 (% inhibition ET <25).
